Values quoted from earlier work in PubChem BioAssay AID1259409 (Chemical Carcinogenesis Research Information System (CCRIS), 2018).

System: rodent chemically induced tumor inhibition, incidence and multiplicity
Experiment: CCRIS tumor inhibitor studies

Structure (SMILES): O=C(/C=C/c1ccc(O)cc1)c1ccc(O)cc1O
- tumour outcome (control, treated, inhibition, significance) (Carcinogen: 7,12-DIMETHYLBENZ[A]ANTHRACENE, 57-97-6, Dose [Inhibitor]: 0, 0.4 UMOL 2/WK FOR 18 WK BEGINNING 10 D POST CARCINOGEN DOSE (STUDY DURATION: 20 WK), Route [Inhibitor]: DERMAL, Species: MOUSE, Strain/Sex: CD-1/FEMALE, Target Tissue: Type of Lesion: SKIN: PAPILLOMA, Dose [Carcinogen]: 200 NMOL ONCE, Promoter: 12-O-TETRADECANOYLPHORBOL-13-ACETATE, 16561-29-8): 85%, 90%, -6%, not significant
- tumour outcome (control, treated, inhibition, significance) (Carcinogen: 7,12-DIMETHYLBENZ[A]ANTHRACENE, 57-97-6, Dose [Inhibitor]: 0, 10 UMOL 2/WK FOR 18 WK BEGINNING 10 D POST CARCINOGEN DOSE (STUDY DURATION: 20 WK), Route [Inhibitor]: DERMAL, Species: MOUSE, Strain/Sex: CD-1/FEMALE, Target Tissue: Type of Lesion: SKIN: PAPILLOMA, Dose [Carcinogen]: 200 NMOL ONCE, Promoter: 12-O-TETRADECANOYLPHORBOL-13-ACETATE, 16561-29-8): 85%, 50%, 41%, p<0.05
- tumour outcome (control, treated, inhibition, significance) (Carcinogen: 7,12-DIMETHYLBENZ[A]ANTHRACENE, 57-97-6, Dose [Inhibitor]: 0, 10 UMOL 2/WK FOR 21 WK BEGINNING 10 D POST CARCINOGEN DOSE (STUDY DURATION: 23 WK), Route [Inhibitor]: DERMAL, Species: MOUSE, Strain/Sex: CD-1/FEMALE, Target Tissue: Type of Lesion: SKIN: PAPILLOMA, Dose [Carcinogen]: 200 NMOL ONCE, Promoter: 12-O-TETRADECANOYLPHORBOL-13-ACETATE, 16561-29-8): 90%, 0%, 100%, p<0.05
- tumour outcome (control, treated, inhibition, significance) (Carcinogen: 7,12-DIMETHYLBENZ[A]ANTHRACENE, 57-97-6, Dose [Inhibitor]: 0, 15 UMOL 2/WK FOR 18 WK BEGINNING 10 D POST CARCINOGEN DOSE (STUDY DURATION: 20 WK), Route [Inhibitor]: DERMAL, Species: MOUSE, Strain/Sex: CD-1/FEMALE, Target Tissue: Type of Lesion: SKIN: PAPILLOMA, Dose [Carcinogen]: 200 NMOL ONCE, Promoter: 12-O-TETRADECANOYLPHORBOL-13-ACETATE, 16561-29-8): 85%, 5%, 95%, p<0.05

Structure (SMILES): CCOC(=O)c1ccc(/C=C(\C)c2ccc3c(c2)C(C)(C)CCC3(C)C)cc1
- tumour outcome (control, treated, inhibition, significance) (Carcinogen: 7,12-DIMETHYLBENZ[A]ANTHRACENE, 57-97-6, Dose [Inhibitor]: 0, 24 UG/KG IN ARACHIS OIL (5 ML/KG) REDUCED TO 16 UG/KG AFTER 4 WK 5/WK BEGINNING 1 D POST CARCINOGEN DOSE (STUDY DURAT, Route [Inhibitor]: GAVAGE, Species: RAT, Strain/Sex: SPRAGUE-DAWLEY/FEMALE, Target Tissue: Type of Lesion: MAMMARY GLAND: TUMOR, Dose [Carcinogen]: 15 MG IN ARACHIS OIL ONCE AT 50 D OF AGE, Promoter: NONE USED): 96%, 72%, 25%, not calculated

Structure (SMILES): C=C1CC[C@H]2C(C)(C)CCC[C@]2(C)[C@H]1CO
- tumour outcome (control, treated, inhibition, significance) (Carcinogen: 7,12-DIMETHYLBENZ[A]ANTHRACENE [57-97-6], Dose [Inhibitor]: 85 NMOL/G IN 0.1 ML ACETONE 2X/WK FOR 20 WK 1 HR PRIOR TO EACH PROMOTER DOSE BEGINNING 1 WK POST LAST CARCINOGEN DOSE (S, Route [Inhibitor]: DERMAL, Species: MOUSE, Strain/Sex: ICR/FEMALE, Target Tissue: Type of Lesion: SKIN: PAPILLOMA, Dose [Carcinogen]: 390 NMOL IN 0.1 ML ACETONE ONCE (STUDY DURATION: 21 WK), Promoter: 12-O-TETRADECANOYL-13-ACETATE [16561-29-8]): 100%, 65%, 35%, not calculated

Structure (SMILES): CCOC(=O)/C=C\C(=O)OCC
- tumour outcome (control, treated, inhibition, significance) (Carcinogen: BUTYLATED HYDROXYANISOLE, 25013-16-5, Dose [Inhibitor]: 0, 0.2% IN DIET SIMULTANEOUSLY WITH CARCINOGEN FOR 104 WK (STUDY DURATION: 104 WK), Route [Inhibitor]: ORAL, Species: RAT, Strain/Sex: F344/MALE, Target Tissue: Type of Lesion: FORESTOMACH: PAPILLOMA, Dose [Carcinogen]: 2% IN DIET FOR 104 WK, Promoter: NONE USED): 88%, 27%, 69%, p<0.01
- tumour outcome (control, treated, inhibition, significance) (Carcinogen: BUTYLATED HYDROXYANISOLE, 25013-16-5, Dose [Inhibitor]: 0, 0.2% IN DIET SIMULTANEOUSLY WITH CARCINOGEN FOR 104 WK (STUDY DURATION: 104 WK), Route [Inhibitor]: ORAL, Species: RAT, Strain/Sex: F344/MALE, Target Tissue: Type of Lesion: FORESTOMACH: SQUAMOUS CELL CARCINOMA, Dose [Carcinogen]: 2% IN DIET FOR 104 WK, Promoter: NONE USED): 20%, 5%, 75%, not calculated
- tumour outcome (control, treated, inhibition, significance) (Carcinogen: N-BUTYL-N-(4-HYDROXYBUTYL)NITROSAMINE, 3817-11-6, Dose [Inhibitor]: 0, 0.15% IN DRINKING WATER FOR 31 WK BEGINNING POST CARCINOGEN DOSE (STUDY DURATION: 36 WK), Route [Inhibitor]: ORAL, Species: RAT, Strain/Sex: F344/MALE, Target Tissue: Type of Lesion: URINARY BLADDER: CARCINOMA, Dose [Carcinogen]: 0.05% IN DRINKING WATER FOR 4 WK, Promoter: BUTYLATED HYDROXYANISOLE, 25013-16-5): 5/15 (33%), 2/15 (13%), 61%, not significant
- tumour outcome (control, treated, inhibition, significance) (Carcinogen: N-BUTYL-N-(4-HYDROXYBUTYL)NITROSAMINE, 3817-11-6, Dose [Inhibitor]: 0, 0.15% IN DRINKING WATER FOR 31 WK BEGINNING POST CARCINOGEN DOSE (STUDY DURATION: 36 WK), Route [Inhibitor]: ORAL, Species: RAT, Strain/Sex: F344/MALE, Target Tissue: Type of Lesion: URINARY BLADDER: PAPILLOMA, Dose [Carcinogen]: 0.05% IN DRINKING WATER FOR 4 WK, Promoter: BUTYLATED HYDROXYANISOLE, 25013-16-5): 8/15 (53%), 10/15 (67%), -26%, not significant
- tumour outcome (control, treated, inhibition, significance) (Carcinogen: N-BUTYL-N-(4-HYDROXYBUTYL)NITROSAMINE, 3817-11-6, Dose [Inhibitor]: 0, 0.15% IN DRINKING WATER FOR 31 WK BEGINNING POST CARCINOGEN DOSE (STUDY DURATION: 36 WK), Route [Inhibitor]: ORAL, Species: RAT, Strain/Sex: F344/MALE, Target Tissue: Type of Lesion: URINARY BLADDER: PAPILLOMA, Dose [Carcinogen]: 0.05% IN DRINKING WATER FOR 4 WK, Promoter: SODIUM BICARBONATE, 144-55-8): 9/15 (60%), 9/15 (60%), 0%, not significant
- tumour outcome (control, treated, inhibition, significance) (Carcinogen: N-METHYL-N'-NITRO-N-NITROSOGUANIDINE, 70-25-7, Dose [Inhibitor]: 0, 0.2% IN DIET BEGINNING 1 WK POST CARCINOGEN DOSE AND CONTINUING FOR 51 WK (STUDY DURATION: 52 WK), Route [Inhibitor]: ORAL, Species: RAT, Strain/Sex: F344/MALE, Target Tissue: Type of Lesion: FORESTOMACH: CARCINOMA, Dose [Carcinogen]: 150 MG/KG ONCE, Promoter: BUTYLATED HYDROXYANISOLE, 25013-16-5): 5/14 (36%), 0/14 (0%), 100%, p<0.05
- tumour outcome (control, treated, inhibition, significance) (Carcinogen: N-METHYL-N'-NITRO-N-NITROSOGUANIDINE, 70-25-7, Dose [Inhibitor]: 0, 0.2% IN DIET BEGINNING 1 WK POST CARCINOGEN DOSE AND CONTINUING FOR 51 WK (STUDY DURATION: 52 WK), Route [Inhibitor]: ORAL, Species: RAT, Strain/Sex: F344/MALE, Target Tissue: Type of Lesion: FORESTOMACH: PAPILLOMA, Dose [Carcinogen]: 150 MG/KG ONCE, Promoter: BUTYLATED HYDROXYANISOLE, 25013-16-5): 14/14 (100%), 11/14 (79%), 21%, not calculated
- tumour outcome (control, treated, inhibition, significance) (Carcinogen: N-METHYL-N'-NITRO-N-NITROSOGUANIDINE, 70-25-7, Dose [Inhibitor]: 0, 0.2% IN DIET BEGINNING 1 WK POST CARCINOGEN DOSE AND CONTINUING FOR 51 WK (STUDY DURATION: 52 WK), Route [Inhibitor]: ORAL, Species: RAT, Strain/Sex: F344/MALE, Target Tissue: Type of Lesion: FORESTOMACH: SARCOMA, Dose [Carcinogen]: 150 MG/KG ONCE, Promoter: BUTYLATED HYDROXYANISOLE, 25013-16-5): 1/14 (7%), 4/14 (29%), -314%, not calculated
- tumour outcome (control, treated, inhibition, significance) (Carcinogen: N-METHYL-N'-NITRO-N-NITROSOGUANIDINE, 70-25-7, Dose [Inhibitor]: 0, 0.2% IN DIET BEGINNING 1 WK POST CARCINOGEN DOSE AND CONTINUING FOR 51 WK (STUDY DURATION: 52 WK), Route [Inhibitor]: ORAL, Species: RAT, Strain/Sex: F344/MALE, Target Tissue: Type of Lesion: FORESTOMACH: SQUAMOUS CELL CARCINOMA, Dose [Carcinogen]: 150 MG/KG ONCE, Promoter: BUTYLATED HYDROXYANISOLE, 25013-16-5): 14/14 (100%), 5/14 (36%), 64%, p<0.001

Structure (SMILES): CC1=CCC(C(C)(O)CO)CC1 (configuration not stated)
- tumour outcome (control, treated, inhibition, significance) (Carcinogen: 7,12-DIMETHYLBENZ[A]ANTHRACENE, 57-97-6, Dose [Inhibitor]: 0, 1% IN DIET FOR 3 WK BEGINNING 2 WK PRIOR TO CARCINOGEN DOSE (STUDY DURATION: 20 WK), Route [Inhibitor]: ORAL, Species: RAT, Strain/Sex: WISTAR/FEMALE, Target Tissue: Type of Lesion: MAMMARY GLAND: CARCINOMA, Dose [Carcinogen]: 50 MG/KG IN SESAME OIL ONCE, Promoter: NONE USED): 98%, 84%, 14%, not significant

Structure (SMILES): CCCCCCCCCCCCO
- tumour outcome (control, treated, inhibition, significance) (Carcinogen: 4-(METHYLNITROSAMINO)-1-(3-PYRIDYL)-1-BUTANONE, 64091-91-4, Dose [Inhibitor]: 0, 1 UMOL IN 0.1 ML CORN OIL ONCE 2 HR PRIOR TO CARCINOGEN DOSE (STUDY DURATION: 16 WK), Route [Inhibitor]: GAVAGE, Species: MOUSE, Strain/Sex: STRAIN-A/FEMALE, Target Tissue: Type of Lesion: LUNG: ADENOMA, Dose [Carcinogen]: 10 UMOL IN 0.1 ML SALINE ONCE, Promoter: NONE USED): 100%, 100%, 0%, not significant
